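Five compound concentrations were applied to cells in 96-well plates for 48 hours; endpoints were derived by simple linear interpolation of the resulting dose-response curve. GI50 is the concentration that inhibits growth by half.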 Active and inactive are the calls of the source. Rule as the data show it: active = GI50 up to about 1.1 µM and inactive = higher.
How the values were obtained:
Assay in all cases: NCI tumour cell line growth inhibition, 48 h
786-0 = system: 786-0
A498 = system: A498
A549 = system: A549
ACHN = system: ACHN
BT-549 = system: BT-549
CAKI-1 = system: CAKI-1
COLO 205 = system: COLO 205
DU-145 = system: DU-145
EKVX = system: EKVX
HCC 2998 = system: HCC 2998
HCT-116 = system: HCT-116
HCT-15 = system: HCT-15
HOP-62 = system: HOP-62
HOP-92 = system: HOP-92
Hs-578T = system: Hs-578T
K562 = system: K562
KM12 = system: KM12
LOX IMVI = system: LOX IMVI
M14 = system: M14
MCF7 = system: MCF7
MDA-MB-231 = system: MDA-MB-231
MDA-MB-435 = system: MDA-MB-435
MDA-N = system: MDA-N
MOLT-4 = system: MOLT-4
Malme-3M = system: Malme-3M
NCI-H226 = system: NCI-H226
NCI-H23 = system: NCI-H23
NCI-H460 = system: NCI-H460
NCI-H522 = system: NCI-H522
NCI/ADR-RES = system: NCI/ADR-RES
OVCAR-3 = system: OVCAR-3
OVCAR-4 = system: OVCAR-4
OVCAR-5 = system: OVCAR-5
OVCAR-8 = system: OVCAR-8
RPMI-8226 = system: RPMI-8226
RXF 393 = system: RXF 393
SF-268 = system: SF-268
SF-295 = system: SF-295
SK-MEL-28 = system: SK-MEL-28
SK-MEL-2 = system: SK-MEL-2
SK-MEL-5 = system: SK-MEL-5
SK-OV-3 = system: SK-OV-3
SN12C = system: SN12C
SNB-19 = system: SNB-19
SR = system: SR
SW-620 = system: SW-620
T47D = system: T47D
TK-10 = system: TK-10
U-251 = system: U-251
UACC-257 = system: UACC-257
UACC-62 = system: UACC-62
UO-31 = system: UO-31
PC-3 = system: PC-3
CCRF-CEM = system: CCRF-CEM
HL-60 = system: HL-60
HT-29 = system: HT-29
IGROV-1 = system: IGROV-1
SF-539 = system: SF-539
SNB-75 = system: SNB-75

Measured: GI50

Cc1ccc(S(=O)(=O)Nc2nnc(S(N)(=O)=O)s2)cc1
inactive: 786-0 > 100 µM | A498 > 100 µM | A549 > 100 µM | ACHN > 100 µM | BT-549 > 100 µM | CAKI-1 > 100 µM | COLO 205 > 100 µM | DU-145 > 100 µM | EKVX > 100 µM | HCC 2998 > 100 µM | HCT-116 > 100 µM | HOP-62 > 100 µM | HOP-92 > 100 µM | Hs-578T > 100 µM | K562 > 100 µM | KM12 > 100 µM | LOX IMVI > 100 µM | M14 > 100 µM | MCF7 > 100 µM | MDA-MB-231 > 100 µM | MDA-MB-435 > 100 µM | MDA-N > 100 µM | MOLT-4 > 100 µM | Malme-3M > 100 µM | NCI-H226 > 100 µM | NCI-H23 > 100 µM | NCI-H460 > 100 µM | NCI-H522 > 100 µM | NCI/ADR-RES > 100 µM | OVCAR-3 > 100 µM | OVCAR-4 > 100 µM | OVCAR-5 > 100 µM | OVCAR-8 > 100 µM | RPMI-8226 > 100 µM | RXF 393 > 100 µM | SF-268 > 100 µM | SF-295 > 100 µM | SK-MEL-28 > 100 µM | SK-MEL-2 > 100 µM | SK-MEL-5 > 100 µM | SK-OV-3 > 100 µM | SN12C > 100 µM | SNB-19 > 100 µM | SR > 100 µM | SW-620 > 100 µM | T47D > 100 µM | TK-10 > 100 µM | U-251 > 100 µM | UACC-257 > 100 µM | UACC-62 > 100 µM | UO-31 > 100 µM
> 100 µM: HCT-15

CNc1nc(N(C)C)nc(N(C)C)n1
inactive: BT-549 1320 µM | DU-145 2790 µM | Hs-578T 2100 µM | M14 1210 µM | MCF7 771 µM | MDA-MB-231 955 µM | MDA-MB-435 1110 µM | MDA-N 855 µM | NCI-H226 1120 µM | NCI/ADR-RES 1140 µM | PC-3 1580 µM | T47D 578 µM

COC(=O)NC(Nc1ccccn1)(C(F)(F)F)C(F)(F)F
inactive: 786-0 > 100 µM | A498 > 100 µM | A549 > 100 µM | ACHN > 100 µM | BT-549 > 100 µM | CAKI-1 > 100 µM | CCRF-CEM > 100 µM | DU-145 > 100 µM | EKVX > 100 µM | HCC 2998 > 100 µM | HCT-116 > 100 µM | HL-60 > 100 µM | HOP-62 > 100 µM | HOP-92 > 100 µM | HT-29 > 100 µM | Hs-578T > 100 µM | IGROV-1 > 100 µM | K562 > 100 µM | KM12 > 100 µM | LOX IMVI > 100 µM | M14 > 100 µM | MCF7 > 100 µM | MDA-MB-231 > 100 µM | MDA-MB-435 > 100 µM | MDA-N > 100 µM | MOLT-4 > 100 µM | Malme-3M > 100 µM | NCI-H226 > 100 µM | NCI-H23 > 100 µM | NCI-H460 > 100 µM | NCI-H522 > 100 µM | NCI/ADR-RES > 100 µM | OVCAR-3 > 100 µM | OVCAR-5 > 100 µM | OVCAR-8 > 100 µM | RPMI-8226 > 100 µM | RXF 393 29.9 µM | SF-268 > 100 µM | SF-539 > 100 µM | SK-MEL-28 > 100 µM | SK-MEL-2 > 100 µM | SK-MEL-5 > 100 µM | SK-OV-3 > 100 µM | SNB-19 > 100 µM | SNB-75 > 100 µM | SR > 100 µM | SW-620 > 100 µM | T47D > 100 µM | TK-10 > 100 µM | U-251 > 100 µM | UACC-257 > 100 µM | UACC-62 > 100 µM | UO-31 > 100 µM
> 100 µM: HCT-15

Cn1c(=O)c2[nH]c(/N=N\n3ccc4ccccc43)nc2n(C)c1=O
> 100 µM: HCT-15
inactive: 786-0 > 100 µM | A498 > 100 µM | A549 > 100 µM | ACHN > 100 µM | BT-549 > 100 µM | CAKI-1 > 100 µM | CCRF-CEM > 100 µM | COLO 205 > 100 µM | DU-145 > 100 µM | EKVX > 100 µM | HCC 2998 > 100 µM | HCT-116 > 100 µM | HL-60 > 100 µM | HOP-62 > 100 µM | HT-29 > 100 µM | Hs-578T > 100 µM | K562 > 100 µM | KM12 > 100 µM | LOX IMVI > 100 µM | M14 > 100 µM | MDA-MB-231 > 100 µM | MDA-MB-435 > 100 µM | MDA-N > 100 µM | MOLT-4 > 100 µM | Malme-3M > 100 µM | NCI-H226 > 100 µM | NCI-H23 > 100 µM | NCI-H460 > 100 µM | NCI-H522 > 100 µM | NCI/ADR-RES > 100 µM | OVCAR-3 > 100 µM | OVCAR-4 > 100 µM | OVCAR-5 > 100 µM | OVCAR-8 > 100 µM | PC-3 > 100 µM | RPMI-8226 > 100 µM | RXF 393 > 100 µM | SF-268 > 100 µM | SF-295 > 100 µM | SF-539 > 100 µM | SK-MEL-28 > 100 µM | SK-MEL-5 > 100 µM | SK-OV-3 > 100 µM | SN12C > 100 µM | SNB-19 > 100 µM | SNB-75 > 100 µM | SR > 100 µM | SW-620 > 100 µM | T47D > 100 µM | TK-10 > 100 µM | U-251 > 100 µM | UACC-257 > 100 µM | UACC-62 > 100 µM | UO-31 > 100 µM

Cc1cc(C)nc(NS(=O)(=O)c2ccc(NN=c3c4ccccc4n(C)c4ccccc34)cc2)n1
32.7 µM: HCT-15
inactive: 786-0 30.2 µM | A549 35.4 µM | ACHN 21.6 µM | BT-549 8.95 µM | CAKI-1 21.5 µM | CCRF-CEM 15.7 µM | COLO 205 29.7 µM | DU-145 37 µM | EKVX 26.4 µM | HCC 2998 28.3 µM | HCT-116 25.7 µM | HL-60 28.9 µM | HOP-62 60.5 µM | HOP-92 15.6 µM | HT-29 33.3 µM | Hs-578T 32.4 µM | IGROV-1 45.8 µM | K562 16.7 µM | KM12 52.7 µM | LOX IMVI 23.7 µM | M14 35.5 µM | MCF7 17.3 µM | MDA-MB-231 21.3 µM | MDA-MB-435 23.8 µM | MDA-N 22.2 µM | MOLT-4 15.5 µM | Malme-3M 35.6 µM | NCI-H226 40.2 µM | NCI-H23 25.6 µM | NCI-H460 29.6 µM | NCI-H522 13.8 µM | NCI/ADR-RES 38.2 µM | OVCAR-3 30.2 µM | OVCAR-4 23.6 µM | OVCAR-5 26.9 µM | OVCAR-8 30.1 µM | PC-3 22 µM | RPMI-8226 27.5 µM | RXF 393 7.62 µM | SF-268 25.6 µM | SF-295 44.7 µM | SF-539 44.4 µM | SK-MEL-28 37 µM | SK-MEL-2 15.1 µM | SK-MEL-5 17.2 µM | SK-OV-3 27.2 µM | SN12C 42.8 µM | SNB-19 42.3 µM | SNB-75 12.7 µM | SW-620 26.1 µM | T47D 13.9 µM | TK-10 28.6 µM | U-251 34.5 µM | UACC-257 39.3 µM | UACC-62 20.8 µM | UO-31 16.6 µM

Source: ChEMBL document CHEMBL1201862, “PubChem BioAssay data set” (2004)
